Experimental data: patent publication US11787839B2, “Targeting α2δ-1-bound glutamate receptors for treating diseases and disorders” (Board of Regents, The University of Texas System, priority 2017, dated 2023)

How the values were obtained:
[1] = test system: NMDARs of spinally projecting PVN neurons; experiment: Recordings of spinally projecting PVN neurons in WT and Cacna2d1 KO mouse slices (Ang II); format: cell-based; settings: Ang II 2 μmol/L
Excerpt: Animals: 10- to 12-week-old male Sprague Dawley rats were used (Harlan Sprague Dawley, Indianapolis, Ind.) and both male and female mice (C57BL/6 genetic background) in the experiments. Two breeding pairs of Cacna2d1+/− mice were purchased from Medical Research Council (Harwell Didcot, Oxfordshire, UK), and Cacna2d1−/− (knockout) mice and Cacna2d1+/+ (wild-type) littermates were obtained by breeding the heterozygous mice. Because no sex differences were found in the effect of Ang II on synaptic NMDAR activity, electrophysiological data from male and female mice were pooled. All surgical preparation and experimental protocols were approved by the Animal Care and Use Committee of The University of Texas MD Anderson Cancer Center and conformed to the National Institutes of Health guidelines for the ethical use of animals. All efforts were made to minimize both the suffering and number of animals used.
Retrograde labeling of spinally projecting PVN neurons: Rats or mice were anesthetized with 2-3% isoflurane, and their spinal cords at the T1-T4 level were exposed through dorsal laminectomy. A fluorescent microsphere suspension (FluoSpheres, 0.04 μm; Molecular Probes, Invitrogen, Eugene, Oreg.) was pressure ejected (Nanoject II Microinjectors, Drummond Scientific Company, Broomall, Pa.) bilaterally into the IML region of the spinal cord in six separate 50-nl injections using a glass micropipette (tip diameter, 20-30 μm). The tracer injection was monitored through a surgical microscope (Li et al., 2002, 2003). The wound was closed with sutures after injection. Animals were returned to their cages for 4-7 days, which was sufficient time to permit the tracer to be retrogradely transported to the PVN. The animals were inspected daily for motor activity, signs of infection, and food and water intake.
Brain slice preparation: Four to seven days after fluorescent tracer injection, the animals were anesthetized with isoflurane and rapidly decapitated. The brain was quickly removed and placed in ice-cold artificial CSF (aCSF) saturated with 95% O2 and 5% CO2. A tissue block containing the hypothalamus was cut from the brain and glued onto the stage of a vibratome (Leica VT1000 S, Leica Biosystems Inc. Buffalo Grove, Ill.) as described previously (Li et al., 2003; Ye et al., 2011). […]
Electrophysiological recordings: The fluorescence-labeled neurons located in the medial one-third of the PVN area between the third ventricle and the fornix were selected for recording (Li et al., 2002, 2003). […]
The miniature excitatory postsynaptic currents (mEPSCs) were recorded in the presence of 1 μmol/L tetrodotoxin (TTX) and 20 μmol/L bicuculline at a holding potential of −60 mV (Li et al., 2003; Ye et al., 2011). […]

Cacna2d1 KO mice = experiment: Nerve injury-induced pain hypersensitivity in Cacna2d1 KO mice; format: in vivo, mouse
Method: Conventional α2δ-1 KO mice (C57BL/6 genetic background) were generated as described previously (Muller et al., 2010). Two breeding pairs of α2δ-1^+/− mice were purchased from Medical Research Council (Harwell Didcot, Oxfordshire, UK), and α2δ-I^−/− mice and α2δ-1^+/+ (wild-type) littermates were obtained by breeding the heterozygous mice. The spared nerve injury (SNI) procedure […] was performed on both male and female mice (10-11 weeks of age). Under a surgical microscope, the left common peroneal and tibial nerves were ligated and sectioned, leaving the sural nerve intact. The sham procedure consisted of the same surgery without nerve ligation and sectioning.
Behavioral assessments of nociception: To detect tactile allodynia, von Frey filaments were applied to the animals' left hindpaws (ipsilateral to the nerve injury). The rats or mice were placed individually in suspended chambers on a mesh floor. […] Using the up-down method, the tactile stimulus that produced a 50% likelihood of a withdrawal response was calculated (Fuller-Bicer et al., 2009).
To quantify the mechanical nociceptive threshold in the rats and mice (Patel et al., 2013; Dolphin et al., 2012), the paw pressure tests were conducted on the hindpaw with an analgesiometer (Ugo Basile, Varese, Italy). […]

Substance	amplitude of puff NMDA-elicited currents ([1]; Cacna2d1−/− mice)	frequency of mEPSCs ([1]; Cacna2d1−/− mice)	NMDAR-mediated frequency of mEPSCs ([1]; wild-type mice)	amplitude of puff NMDA-elicited currents ([1]; wild-type mice)	nerve injury-induced pain hypersensitivity in Cacna2d1 KO mice (Cacna2d1 KO mice)
Ang II: angiotensin II, obtained from Sigma (DRVYIHPF; Angiotensin-2; UniProt P01019 25-32, looked up)	had no effect	had no effect	markedly increased	markedly increased	–
YGRKKRRQRRRVSGLNPSLWSIFGLQFILLWLVSGSRHYLW (a2d1 peptide) [α2δ-1Tat peptide, 30-amino-acid peptide mimicking the C-terminal domain of α2δ-1 fused to the cell-penetrating peptide Tat]	–	–	–	–	had no effect
